This passage reports IC50 results from paper doi:10.1101/2024.02.23.581731v1 (biorxiv, 2024).

The target in this experiment is T1, h5-HT3AR (Homo sapiens, UniProt P46098, M204I).
T1 sequence (P46098 24-478 M204I): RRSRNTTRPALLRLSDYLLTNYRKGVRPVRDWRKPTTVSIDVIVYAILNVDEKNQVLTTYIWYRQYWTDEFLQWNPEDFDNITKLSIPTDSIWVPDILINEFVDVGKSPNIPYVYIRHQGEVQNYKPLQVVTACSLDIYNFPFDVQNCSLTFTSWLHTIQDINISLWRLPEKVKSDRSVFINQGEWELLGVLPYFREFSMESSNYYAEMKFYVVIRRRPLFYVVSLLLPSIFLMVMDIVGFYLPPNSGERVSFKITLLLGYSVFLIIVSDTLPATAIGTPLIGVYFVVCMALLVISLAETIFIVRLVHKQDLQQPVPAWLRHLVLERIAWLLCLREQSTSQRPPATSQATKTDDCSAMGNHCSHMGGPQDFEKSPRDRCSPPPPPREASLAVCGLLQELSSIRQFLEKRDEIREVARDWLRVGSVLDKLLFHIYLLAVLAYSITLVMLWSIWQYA
Put plainly: FLIPR Blue membrane potential assay, inhibition of 5-HT response. Type of experiment: cell-based.

Usually IC50 stands for the point on the concentration scale where inhibition reaches its midpoint. Lower therefore signals higher potency. For the compound `Cc1ccc(Sc2ccccc2N2CCNCC2)c(C)c1` [vortioxetine], the IC50 was determined as 73 nM.
